Laboratory results reported in the NIST ThermoML archive (doi:10.1016/j.fluid.2018.10.006).
Numbers after ± are expanded uncertainties.

Details: Fluid (supercritical or subcritical phases), Coaxial cylinder method

CCCCCC [hexane]
thermal conductivity [W/m/K]
Details	525.42 K	553 K
1000 kPa	–	0.04354 ± 0.0022
1120 kPa	–	0.0439 ± 0.0022
1400 kPa	–	0.04407 ± 0.0022
1500 kPa	–	0.04431 ± 0.0022
1600 kPa	–	0.04443 ± 0.0022
1700 kPa	–	0.04455 ± 0.0022
1800 kPa	–	0.0448 ± 0.0022
1900 kPa	–	0.04493 ± 0.0022
2000 kPa	–	0.04518 ± 0.0023
2100 kPa	–	0.04543 ± 0.0023
2200 kPa	–	0.04556 ± 0.0023
2300 kPa	–	0.04582 ± 0.0023
2400 kPa	–	0.04608 ± 0.0023
2500 kPa	0.04372 ± 0.0022	0.04635 ± 0.0023
2600 kPa	–	0.04661 ± 0.0023
2700 kPa	–	0.04688 ± 0.0023
2740 kPa	0.04444 ± 0.0022	–
2800 kPa	–	0.04716 ± 0.0023
2850 kPa	0.04444 ± 0.0022	–
2900 kPa	–	0.04743 ± 0.0024
3000 kPa	0.04701 ± 0.0023	0.04743 ± 0.0024
3050 kPa	0.04756 ± 0.0024	–
3100 kPa	0.04855 ± 0.0024	0.04814 ± 0.0024
3150 kPa	0.04855 ± 0.0024	–
3200 kPa	0.04958 ± 0.0024	0.04857 ± 0.0024
3250 kPa	0.05034 ± 0.0025	–
3300 kPa	0.05065 ± 0.0025	0.04897 ± 0.0024
3350 kPa	0.05177 ± 0.0025	–
3400 kPa	0.05311 ± 0.0026	0.04942 ± 0.0024
3450 kPa	0.0538 ± 0.0026	–
3500 kPa	0.05526 ± 0.0027	0.05003 ± 0.0024
3550 kPa	0.05659 ± 0.0027	–
3600 kPa	0.05777 ± 0.0028	0.0505 ± 0.0025
3650 kPa	0.059 ± 0.0028	–
3700 kPa	0.0603 ± 0.0029	0.05127 ± 0.0025
3750 kPa	0.06164 ± 0.0029	–
3800 kPa	0.06281 ± 0.003	0.05191 ± 0.0025
3850 kPa	0.06378 ± 0.003	–
3900 kPa	0.06477 ± 0.0031	0.05255 ± 0.0026
4000 kPa	0.06632 ± 0.0031	0.05325 ± 0.0026
4100 kPa	0.06685 ± 0.0032	0.05395 ± 0.0026
4200 kPa	0.06685 ± 0.0032	0.05468 ± 0.0027
4268 kPa	–	0.05523 ± 0.0027
4300 kPa	0.06685 ± 0.0032	–
4390 kPa	–	0.05618 ± 0.0027
4400 kPa	0.06684 ± 0.0032	–
4500 kPa	0.06684 ± 0.0032	–
4600 kPa	0.06684 ± 0.0032	–
4700 kPa	0.06683 ± 0.0032	0.0589 ± 0.0028
4800 kPa	0.06683 ± 0.0032	0.05987 ± 0.0029
4900 kPa	0.06848 ± 0.0032	0.06075 ± 0.0029
5000 kPa	0.06848 ± 0.0032	0.06166 ± 0.0029
5100 kPa	0.06848 ± 0.0032	–
5200 kPa	0.06848 ± 0.0032	–
5300 kPa	0.07141 ± 0.0033	0.06418 ± 0.003
5400 kPa	0.07172 ± 0.0034	–
5500 kPa	0.07172 ± 0.0034	0.06559 ± 0.0031
5600 kPa	0.07172 ± 0.0034	–
5700 kPa	0.07203 ± 0.0034	–
5800 kPa	0.07203 ± 0.0034	0.06746 ± 0.0032
5900 kPa	0.07218 ± 0.0034	–
6000 kPa	0.07233 ± 0.0034	0.06843 ± 0.0032
6100 kPa	0.07249 ± 0.0034	–
6200 kPa	0.07249 ± 0.0034	–
6300 kPa	0.07265 ± 0.0034	0.06974 ± 0.0033
6400 kPa	0.07281 ± 0.0034	–
6500 kPa	0.0728 ± 0.0034	0.07019 ± 0.0033
6600 kPa	0.07296 ± 0.0034	–
6700 kPa	0.07312 ± 0.0034	–
6800 kPa	0.07328 ± 0.0034	0.07109 ± 0.0033
6900 kPa	0.07348 ± 0.0034	–
7000 kPa	0.07361 ± 0.0034	0.0717 ± 0.0034
7100 kPa	0.07377 ± 0.0034	–
7200 kPa	0.07393 ± 0.0034	0.07202 ± 0.0034
7317 kPa	0.0741 ± 0.0034	–
7328 kPa	0.07412 ± 0.0034	–
7405 kPa	0.07412 ± 0.0034	–
7500 kPa	0.07428 ± 0.0035	0.07265 ± 0.0034
7600 kPa	0.07445 ± 0.0035	–
7700 kPa	0.07462 ± 0.0035	–
7800 kPa	0.07478 ± 0.0035	0.07329 ± 0.0034
7900 kPa	0.07482 ± 0.0035	–
8000 kPa	0.07495 ± 0.0035	0.07361 ± 0.0034
8100 kPa	0.07512 ± 0.0035	–
8200 kPa	0.07529 ± 0.0035	–
8300 kPa	0.07546 ± 0.0035	0.07427 ± 0.0035
8400 kPa	0.07546 ± 0.0035	–
8500 kPa	0.07546 ± 0.0035	0.07427 ± 0.0035
8600 kPa	0.07563 ± 0.0035	–
8700 kPa	0.07583 ± 0.0035	–
8800 kPa	0.07597 ± 0.0035	0.07545 ± 0.0035
8900 kPa	0.07614 ± 0.0035	–
9000 kPa	0.07632 ± 0.0035	0.07545 ± 0.0035
9100 kPa	0.07632 ± 0.0035	–
9200 kPa	0.07649 ± 0.0036	–
9250 kPa	–	0.07562 ± 0.0035
9300 kPa	0.07667 ± 0.0036	–
9400 kPa	0.07674 ± 0.0036	–
9500 kPa	0.07684 ± 0.0036	0.07582 ± 0.0035
9600 kPa	0.07701 ± 0.0036	–
9700 kPa	0.07712 ± 0.0036	–
9800 kPa	0.07726 ± 0.0036	0.07617 ± 0.0035
9900 kPa	0.07737 ± 0.0036	–
10000 kPa	–	0.07635 ± 0.0035
10150 kPa	0.07772 ± 0.0036	–
10200 kPa	0.07779 ± 0.0036	–
10300 kPa	0.07793 ± 0.0036	0.07652 ± 0.0036
10400 kPa	0.07804 ± 0.0036	–
10500 kPa	0.07815 ± 0.0036	0.07688 ± 0.0036
10600 kPa	0.07833 ± 0.0036	–
10800 kPa	0.07855 ± 0.0036	0.07716 ± 0.0036
11000 kPa	–	0.0773 ± 0.0036
11500 kPa	0.07941 ± 0.0037	0.07777 ± 0.0036
11600 kPa	0.07956 ± 0.0037	–
11800 kPa	0.07975 ± 0.0037	–
12000 kPa	0.07994 ± 0.0037	0.07832 ± 0.0036
12300 kPa	0.08032 ± 0.0037	0.07869 ± 0.0036
12500 kPa	0.08048 ± 0.0037	–
12870 kPa	–	0.07914 ± 0.0037
13500 kPa	–	0.07983 ± 0.0037
14000 kPa	–	0.08021 ± 0.0037
14500 kPa	–	0.08068 ± 0.0037
15000 kPa	–	0.08119 ± 0.0037
